Patent publication US11547697B2, “Heterocyclic compounds and uses thereof” (MILLENNIUM PHARMACEUTICALS, INC., priority 2009, dated 2023)
pIC50: −log10 of the molar value. Where two headings read alike, the source gives them in different places.

How the values were obtained:
Assay type in all cases: biochemical
p110α/p85α = p110α/p85α (Homo sapiens (Human), UniProt P42336); assay: PI 3-Kinase (human) HTRF assay, p110α/p85α
p110β/p85α = p110β/p85α (Homo sapiens (Human), UniProt P42338); assay: PI 3-Kinase (human) HTRF assay, p110β/p85α
p110γ = p110γ (Homo sapiens (Human), UniProt P48736); assay: PI 3-Kinase (human) HTRF assay, p110γ
[1] = in vitro, read-out: PI3K α IC50
[2] = in vitro, read-out: PI3K β IC50
[3] = in vitro, read-out: PI3K γ IC50

p110γ, sequence (P48736 whole entry): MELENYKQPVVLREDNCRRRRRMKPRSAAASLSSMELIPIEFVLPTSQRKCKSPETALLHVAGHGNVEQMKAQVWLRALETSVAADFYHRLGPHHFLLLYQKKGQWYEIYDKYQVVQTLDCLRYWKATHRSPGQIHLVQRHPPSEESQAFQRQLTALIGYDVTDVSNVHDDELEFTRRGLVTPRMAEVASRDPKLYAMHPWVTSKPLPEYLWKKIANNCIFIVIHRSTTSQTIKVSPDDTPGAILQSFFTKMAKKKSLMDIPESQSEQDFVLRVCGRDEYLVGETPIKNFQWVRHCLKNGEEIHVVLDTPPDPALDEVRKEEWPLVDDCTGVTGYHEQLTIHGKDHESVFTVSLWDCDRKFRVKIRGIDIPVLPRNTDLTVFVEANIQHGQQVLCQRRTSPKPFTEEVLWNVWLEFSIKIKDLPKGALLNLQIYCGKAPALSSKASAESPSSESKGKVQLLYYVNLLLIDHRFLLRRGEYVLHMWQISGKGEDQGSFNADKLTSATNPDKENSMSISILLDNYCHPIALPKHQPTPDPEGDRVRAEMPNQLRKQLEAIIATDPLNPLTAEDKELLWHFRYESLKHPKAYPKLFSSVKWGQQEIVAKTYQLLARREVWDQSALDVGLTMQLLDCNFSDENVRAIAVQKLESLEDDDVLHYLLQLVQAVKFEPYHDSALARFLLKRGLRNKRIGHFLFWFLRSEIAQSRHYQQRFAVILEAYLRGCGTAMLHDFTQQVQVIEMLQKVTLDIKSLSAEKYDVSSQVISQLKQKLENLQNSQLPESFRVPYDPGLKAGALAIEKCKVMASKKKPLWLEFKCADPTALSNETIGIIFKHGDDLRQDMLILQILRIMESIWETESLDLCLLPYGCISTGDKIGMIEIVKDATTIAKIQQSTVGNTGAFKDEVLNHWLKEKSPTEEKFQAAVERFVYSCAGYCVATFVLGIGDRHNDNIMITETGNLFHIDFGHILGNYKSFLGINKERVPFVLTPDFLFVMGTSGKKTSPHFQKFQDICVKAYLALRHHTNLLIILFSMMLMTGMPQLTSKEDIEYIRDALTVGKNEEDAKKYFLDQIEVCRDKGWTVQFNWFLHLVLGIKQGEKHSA
p110α/p85α, sequence (P42336 whole entry): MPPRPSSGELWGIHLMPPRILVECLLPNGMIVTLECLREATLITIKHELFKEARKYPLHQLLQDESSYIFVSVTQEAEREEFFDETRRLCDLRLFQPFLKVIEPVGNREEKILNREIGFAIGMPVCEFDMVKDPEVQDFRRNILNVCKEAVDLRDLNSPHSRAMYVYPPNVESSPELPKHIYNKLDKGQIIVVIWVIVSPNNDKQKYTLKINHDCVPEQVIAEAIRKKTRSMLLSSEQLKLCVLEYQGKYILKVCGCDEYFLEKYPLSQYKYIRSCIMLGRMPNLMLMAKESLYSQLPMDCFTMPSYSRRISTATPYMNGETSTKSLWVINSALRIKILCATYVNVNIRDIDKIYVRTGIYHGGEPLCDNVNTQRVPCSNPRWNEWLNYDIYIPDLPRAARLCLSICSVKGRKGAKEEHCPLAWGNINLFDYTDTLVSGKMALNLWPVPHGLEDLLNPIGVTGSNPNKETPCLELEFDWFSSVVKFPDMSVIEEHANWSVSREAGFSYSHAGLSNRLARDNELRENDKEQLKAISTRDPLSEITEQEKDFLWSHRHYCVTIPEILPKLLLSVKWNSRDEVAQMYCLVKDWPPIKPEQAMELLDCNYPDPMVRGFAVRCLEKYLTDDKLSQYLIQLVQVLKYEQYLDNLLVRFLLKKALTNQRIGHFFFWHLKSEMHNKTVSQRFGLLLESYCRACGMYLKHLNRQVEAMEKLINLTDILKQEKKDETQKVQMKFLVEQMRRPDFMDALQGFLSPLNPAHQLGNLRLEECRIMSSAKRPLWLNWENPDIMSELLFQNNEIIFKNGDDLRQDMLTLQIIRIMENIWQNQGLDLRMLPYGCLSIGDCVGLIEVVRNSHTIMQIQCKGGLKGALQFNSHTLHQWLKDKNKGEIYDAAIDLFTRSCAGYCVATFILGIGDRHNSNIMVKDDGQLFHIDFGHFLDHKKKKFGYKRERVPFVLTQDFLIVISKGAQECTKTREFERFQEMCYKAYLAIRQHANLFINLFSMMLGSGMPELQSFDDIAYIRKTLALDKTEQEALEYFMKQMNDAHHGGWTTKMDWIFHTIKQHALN
p110α/p85α, sequence (P27986 whole entry partner): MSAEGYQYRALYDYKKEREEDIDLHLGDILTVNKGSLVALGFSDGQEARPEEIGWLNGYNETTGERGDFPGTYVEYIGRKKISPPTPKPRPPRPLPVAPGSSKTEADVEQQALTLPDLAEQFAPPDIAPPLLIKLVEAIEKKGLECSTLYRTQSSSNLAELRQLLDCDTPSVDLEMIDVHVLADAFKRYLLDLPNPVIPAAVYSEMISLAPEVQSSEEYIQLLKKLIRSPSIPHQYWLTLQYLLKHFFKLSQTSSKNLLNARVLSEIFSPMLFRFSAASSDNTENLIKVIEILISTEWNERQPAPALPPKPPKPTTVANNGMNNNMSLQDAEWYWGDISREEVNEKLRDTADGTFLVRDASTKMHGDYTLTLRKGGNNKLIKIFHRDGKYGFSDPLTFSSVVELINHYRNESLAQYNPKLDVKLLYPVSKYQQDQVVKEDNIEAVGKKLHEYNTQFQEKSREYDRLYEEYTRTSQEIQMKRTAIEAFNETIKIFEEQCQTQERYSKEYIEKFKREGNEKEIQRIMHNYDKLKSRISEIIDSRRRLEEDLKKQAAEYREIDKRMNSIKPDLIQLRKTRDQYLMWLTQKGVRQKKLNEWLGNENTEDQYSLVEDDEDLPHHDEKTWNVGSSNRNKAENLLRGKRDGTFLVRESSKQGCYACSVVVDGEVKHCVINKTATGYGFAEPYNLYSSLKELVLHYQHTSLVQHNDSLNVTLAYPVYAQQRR
p110β/p85α, sequence (P42338 whole entry): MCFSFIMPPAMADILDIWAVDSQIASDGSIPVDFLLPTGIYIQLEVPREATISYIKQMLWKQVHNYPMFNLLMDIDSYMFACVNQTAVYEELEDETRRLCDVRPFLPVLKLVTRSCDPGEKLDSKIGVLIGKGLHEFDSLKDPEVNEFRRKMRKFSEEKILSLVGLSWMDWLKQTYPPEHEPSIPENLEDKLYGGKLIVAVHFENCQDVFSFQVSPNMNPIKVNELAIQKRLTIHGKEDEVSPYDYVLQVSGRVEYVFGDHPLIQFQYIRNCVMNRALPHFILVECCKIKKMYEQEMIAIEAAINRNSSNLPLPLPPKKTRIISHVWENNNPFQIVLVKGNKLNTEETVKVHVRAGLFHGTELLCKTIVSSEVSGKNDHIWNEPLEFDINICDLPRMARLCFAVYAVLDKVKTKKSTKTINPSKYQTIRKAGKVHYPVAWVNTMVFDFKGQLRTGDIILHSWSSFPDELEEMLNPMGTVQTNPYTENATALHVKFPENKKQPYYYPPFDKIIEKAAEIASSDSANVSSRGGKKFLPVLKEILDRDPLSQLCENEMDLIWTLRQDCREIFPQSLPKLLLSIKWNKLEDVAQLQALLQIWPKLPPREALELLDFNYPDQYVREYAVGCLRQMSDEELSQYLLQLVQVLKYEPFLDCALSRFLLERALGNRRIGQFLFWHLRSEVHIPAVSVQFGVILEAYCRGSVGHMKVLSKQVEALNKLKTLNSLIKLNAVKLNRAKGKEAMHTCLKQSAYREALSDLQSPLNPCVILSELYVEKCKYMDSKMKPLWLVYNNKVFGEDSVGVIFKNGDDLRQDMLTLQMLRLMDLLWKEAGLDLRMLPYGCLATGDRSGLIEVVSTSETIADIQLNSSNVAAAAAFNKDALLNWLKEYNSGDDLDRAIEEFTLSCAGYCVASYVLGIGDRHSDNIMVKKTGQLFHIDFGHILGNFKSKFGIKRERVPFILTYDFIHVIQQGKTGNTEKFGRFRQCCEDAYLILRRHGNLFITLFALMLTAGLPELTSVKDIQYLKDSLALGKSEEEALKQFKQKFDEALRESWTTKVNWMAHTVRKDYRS
p110β/p85α, sequence (P27986 whole entry partner): as the sequence (P27986 whole entry partner) above

pIC50 (p110α/p85α; [1]) | pIC50 (p110β/p85α; [2]) | pIC50 (p110γ; [3]) | pIC50 (p110α/p85α; read-out: PI3K α In Vitro IC50) | pIC50 (p110β/p85α; read-out: PI3K β In Vitro IC50) | pIC50 (p110γ; read-out: PI3K γ In Vitro IC50) | Structure (SMILES)
– | > 5.00 | – | – | – | – | C[C@H]1CN(c2cnc3cccc(-c4ccc5nc(N)oc5c4)c3n2)CCN1 [compound 343]
> 7.00 | > 5.00 | > 6.00 | – | – | – | Nc1nc2cc(-c3ccn4ncc(C(=O)N5CCCC5)c4c3)ccc2o1 [compound 346]
> 6.00 | > 5.00 | > 6.00 | – | – | – | Nc1nc2cc(-c3ccn4ncc(C(=O)N5CCOCC5)c4c3)ccc2o1 [compound 347]
> 5.00 | > 6.00 | – | – | – | – | Cc1cc2oc(N)nc2cc1-c1ccc2ncc(N3CCN[C@@H](C)C3)nc2c1 [compound 351]
> 6.00 | > 5.00 | > 6.00 | – | – | – | Cc1cc(-c2ccc3ncc(C(=O)N4CCOCC4)n3c2)cc2nc(N)oc12 [compound 364]
> 7.00 | > 5.00 | > 5.00 | – | – | – | CN(C)C1CN(c2cnc3ccc(-c4ccc5oc(N)nc5c4)cc3n2)C1 [compound 366]
> 6.00 | > 5.00 | – | – | – | – | Nc1nc2cc(-c3ccc4ncc(N5CC(N6CCOCC6)C5)nc4c3)c(Cl)cc2o1 [compound 371]
> 6.00 | > 5.00 | > 5.00 | – | – | – | CN1CCN(C(=O)c2cnn3ccc(-c4ccc5oc(N)nc5c4)cc23)CC1 [compound 380]
> 7.00 | > 5.00 | – | – | – | – | CN1CCC(c2cnc3ccc(-c4ccc5oc(N)nc5c4)cc3n2)CC1 [compound 385]
> 7.00 | > 6.00 | > 6.00 | – | – | – | COCCN1CCN(c2cnc3ccc(-c4ccc5oc(N)nc5c4)cc3n2)CC1 [compound 387]
> 6.00 | – | > 5.00 | – | – | – | CN1CCN(c2cnc3ccc(-c4ccc5oc(N)nc5c4)cc3n2)C(=O)C1 [compound 390]
– | – | – | > 5.00 | > 5.00 | – | CNc1nc2cc(-c3ccc4ncc(C(=O)N5CCOCC5)n4c3)ccc2o1 [compound 406]
– | – | – | – | > 5.00 | – | O=C(c1cnc2ccc(-c3ccc4oc(Nc5ccccc5)nc4c3)cn12)N1CCOCC1 [compound 407]
– | – | – | > 5.00 | – | > 5.00 | O=C(c1cnc2ccc(-c3cccc(NS(=O)(=O)c4ccccc4)c3)cn12)N1CCOCC1 [compound 453]
– | – | – | > 7.00 | – | > 7.00 | Nc1nc2cc(-c3ccc4ncc(C(=O)N5CC[C@H](F)C5)n4c3)ccc2o1 [compound 476]
– | – | – | > 5.00 | – | > 5.00 | CNc1noc2cc(-c3ccc4ncc(C(=O)N5CCOCC5)n4c3)ccc12 [compound 486]
– | – | – | > 6.00 | – | > 5.00 | Nc1nc2cc(-c3ccc4ncc(C(=O)N5CCC(F)(F)CC5)n4c3)ccc2o1 [compound 501]
– | – | – | > 6.00 | > 5.00 | – | CN1CC(n2cnc3ccc(-c4ccc5oc(N)nc5c4)cc3c2=O)C1 [compound 528]

The remaining lines, values behind:

Structure (SMILES) | pIC50 (p110α/p85α; [1]) | pIC50 (p110β/p85α; [2]) | pIC50 (p110γ; [3]) | pIC50 (p110α/p85α; read-out: PI3K α In Vitro IC50) | pIC50 (p110β/p85α; read-out: PI3K β In Vitro IC50) | pIC50 (p110γ; read-out: PI3K γ In Vitro IC50)
Nc1nc2cc(-c3ccc4ncc(C(=O)N(CCO)CCO)n4c3)ccc2o1 [compound 316] | > 6.00 | > 5.00 | > 5.00 | – | – | –
Nc1nc2cc(-c3ccc4ncc(N5CCNCC5=O)nc4c3)ccc2o1 [compound 389] | > 6.00 | – | > 5.00 | – | – | –
Nc1nc2cc(-c3ccc4ncc(N5CCN(CC(F)(F)F)CC5)nc4c3)ccc2o1 [compound 395] | > 7.00 | – | > 7.00 | – | – | –
C[C@H]1CN(c2cnc3ccc(-c4ccc5oc(N)nc5c4)cc3c2)CCN1 [compound 396] | > 7.00 | > 7.00 | > 5.00 | – | – | –
Nc1nc2cc(-c3ccc4ncc(C(=O)N5CCOCC5)n4c3)cnc2o1 [compound 400] | – | – | – | > 7.00 | > 5.00 | > 5.00
Nc1nc2cc(-c3ccc4c(N)n[nH]c4c3)ccc2o1 [compound 428] | – | – | – | > 5.00 | > 5.00 | > 6.00
Cc1cc(-c2ccc3oc(N)nc3c2)cn2c(C(=O)N3CCOCC3)cnc12 [compound 448] | – | – | – | > 6.00 | – | > 5.00
COc1ccc(-c2ccc3ncc(C(=O)N4CCOCC4)n3c2)cc1NS(=O)(=O)c1ccccc1 [compound 455] | – | – | – | > 5.00 | – | > 5.00
O=C(c1cnc2ccc(-c3ccc(Cl)c(NS(=O)(=O)c4ccccc4)c3)cn12)N1CCOCC1 [compound 459] | – | – | – | > 6.00 | – | > 6.00
Nc1nc2cc(-c3ccc4ncc(C(=O)N5CC[C@H](N6CCOCC6)C5)n4c3)ccc2o1 [compound 465] | – | – | – | > 7.00 | – | > 6.00
Nc1nc2cc(-c3ccc4ncc(C(=O)N5CCC(N6CC(F)(F)C6)C5)n4c3)ccc2o1 (stereo not drawn) [compound 498] | – | – | – | > 6.00 | – | > 5.00
Nc1nc2cc(-c3ccc4ncc(C(=O)N5CCC6(C5)OCCO6)n4c3)ccc2o1 [compound 499] | – | – | – | > 6.00 | – | > 5.00
Nc1nc2cc(-c3ccc4ncc(C(=O)N5CCC(F)CC5)n4c3)ccc2o1 [compound 503] | – | – | – | > 6.00 | – | > 7.00
CC1(C)CN(C(=O)c2cnc3ccc(-c4ccc5oc(N)nc5c4)cn23)CCO1 [compound 513] | – | – | – | > 6.00 | – | > 5.00
